The source made the active and inactive calls. The rule behind the calls is not given here.

One test concerns the target T1, Fatty-acid amide hydrolase 1 (Homo sapiens) (UniProt O00519).
T1 sequence (whole entry): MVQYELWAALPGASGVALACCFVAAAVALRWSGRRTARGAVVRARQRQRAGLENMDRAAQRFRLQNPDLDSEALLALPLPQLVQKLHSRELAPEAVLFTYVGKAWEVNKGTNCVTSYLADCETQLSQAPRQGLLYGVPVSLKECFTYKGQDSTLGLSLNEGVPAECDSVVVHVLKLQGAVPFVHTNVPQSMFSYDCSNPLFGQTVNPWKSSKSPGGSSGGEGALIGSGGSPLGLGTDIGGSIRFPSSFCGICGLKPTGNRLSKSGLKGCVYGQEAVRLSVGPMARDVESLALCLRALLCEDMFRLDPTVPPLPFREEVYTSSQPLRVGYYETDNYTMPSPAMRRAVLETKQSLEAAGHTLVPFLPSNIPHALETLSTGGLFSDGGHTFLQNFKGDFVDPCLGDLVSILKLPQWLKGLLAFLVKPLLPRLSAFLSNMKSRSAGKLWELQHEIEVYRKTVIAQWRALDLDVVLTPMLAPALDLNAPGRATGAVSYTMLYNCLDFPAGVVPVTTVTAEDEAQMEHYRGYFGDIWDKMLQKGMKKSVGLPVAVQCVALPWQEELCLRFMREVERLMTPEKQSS
Description: Inhibition of human recombinant FAAH overexpressed in African green monkey COS7 cells using [3H]-anandamide as substrate at 10 uM preincubated for 10 mins before substrate addition measured after 10 mins by liquid scintillation counting analysis relative to control. Type of test: cell-based. As to conditions: COS-7.
In general, inhibition refers to the change of the read-out against control, counted positive when it falls. In the case of `COc1nn(Cc2cccc(-c3ccccc3)c2)c(=O)o1`, the inhibition came to 46%.

In the case of `COc1nn(C(c2ccccc2)c2ccccc2)c(=O)o1`, the inhibition result is “inactive”.

Turning to `COc1nn(C2CCCCC2)c(=O)o1`, the inhibition was 40%.

For `COc1nn(Cc2ccccc2)c(=O)o1`, the inhibition result is “inactive”.

For the molecule `COc1nn(C(C)C)c(=O)o1`, the inhibition amounted to 12%.

A further test concerns the target T2, Fatty-acid amide hydrolase 1 (Homo sapiens, UniProt O00519).
T2 sequence (O00519 whole entry): T1 sequence (whole entry)
Nature of the test: Inhibition of human recombinant FAAH overexpressed in African green monkey COS7 cells using [3H]-anandamide as substrate preincubated for 10 mins before substrate addition measured after 10 mins by liquid scintillation counting analysis. As to conditions: cos-7; read-out: IC50. The format is cell-based, COS-7.
As for `COc1nn(Cc2ccc(Oc3ccccc3)cc2)c(=O)o1`, the IC50 worked out at 100 nM.

Still in this test, the particulars now being: read-out: IC50.
With `COc1nn(Cc2ccccc2Oc2ccccc2)c(=O)o1`, the IC50 amounted to 6300 nM.

Take `COc1nn(C(C)c2cccc(-c3ccccc3)c2)c(=O)o1` (stereo not given): the IC50 was 1200 nM.

For `COc1nn(Cc2ccc(N(c3ccccc3)c3ccccc3)cc2)c(=O)o1`, the IC50 came to 470 nM.

On to `COc1nn([C@@H](C)c2ccc(N(c3ccccc3)c3ccccc3)cc2)c(=O)o1`, for which the IC50 was determined as 98 nM.

The same test, now with this note: read-out: pIC50 (converted).
Turning to `COc1nn(Cc2ccccc2Oc2ccccc2)c(=O)o1`, the IC50 was 6310 nM.

As for `COc1nn(C(C)c2cccc(-c3ccccc3)c2)c(=O)o1` (stereo not given), the IC50 was 1170 nM.

With `COc1nn(Cc2ccc(N(c3ccccc3)c3ccccc3)cc2)c(=O)o1`, the IC50 was 457 nM.

On to `COc1nn([C@@H](C)c2ccc(N(c3ccccc3)c3ccccc3)cc2)c(=O)o1`, for which the IC50 was 100 nM.

In the case of `COc1nn(Cc2ccc(Oc3ccccc3)cc2)c(=O)o1`, the IC50 is 100 nM.

The target of the next test is T3, Lysophosphatidylserine lipase ABHD12 (Homo sapiens) (UniProt Q8N2K0).
T3 sequence (whole entry): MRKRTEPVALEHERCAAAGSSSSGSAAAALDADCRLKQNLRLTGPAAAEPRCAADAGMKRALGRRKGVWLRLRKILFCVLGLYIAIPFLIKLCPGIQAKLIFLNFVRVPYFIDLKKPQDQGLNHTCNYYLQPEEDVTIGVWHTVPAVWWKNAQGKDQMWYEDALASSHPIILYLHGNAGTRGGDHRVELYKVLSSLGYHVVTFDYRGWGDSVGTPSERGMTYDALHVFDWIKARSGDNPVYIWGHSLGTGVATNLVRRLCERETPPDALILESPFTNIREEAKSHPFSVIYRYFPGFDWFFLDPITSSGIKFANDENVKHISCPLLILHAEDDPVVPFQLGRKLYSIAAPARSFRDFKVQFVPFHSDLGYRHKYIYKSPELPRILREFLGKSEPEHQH
Description: Inhibition of human ABHD12 overexpressed in HEK293 cells assessed as 2-AG hydrolysis at 1 uM by fluorescent glycerol assay. Type of test: cell-based.
Conditions: not given
In the case of `COc1nn(Cc2ccccc2Oc2ccccc2)c(=O)o1`, the inhibition result was “inactive”.

With `COc1nn(C(C)c2cccc(-c3ccccc3)c2)c(=O)o1` (stereo not given), the inhibition entry was “inactive”.

For the molecule `COc1nn(Cc2ccc(N(c3ccccc3)c3ccccc3)cc2)c(=O)o1`, the inhibition entry is “inactive”.

Regarding `COc1nn([C@@H](C)c2ccc(N(c3ccccc3)c3ccccc3)cc2)c(=O)o1`, the inhibition entry is “inactive”.

With `COc1nn(Cc2cccc(-c3ccccc3)c2)c(=O)o1`, the inhibition entry is “inactive”.

Regarding `COc1nn(C(c2ccccc2)c2ccccc2)c(=O)o1`, the inhibition result is “inactive”.

As for `COc1nn(C2CCCCC2)c(=O)o1`, the inhibition entry was “inactive”.

Regarding `COc1nn(Cc2ccccc2)c(=O)o1`, the inhibition entry is “inactive”.

`COc1nn(Cc2ccc(Oc3ccccc3)cc2)c(=O)o1`: the inhibition result is “inactive”.

On to `COc1nn(C(C)C)c(=O)o1`, for which the inhibition entry is “inactive”.

For a further test, the target named is T4, Monoacylglycerol lipase ABHD6 (Homo sapiens) (UniProt Q9BV23).
T4 sequence (whole entry): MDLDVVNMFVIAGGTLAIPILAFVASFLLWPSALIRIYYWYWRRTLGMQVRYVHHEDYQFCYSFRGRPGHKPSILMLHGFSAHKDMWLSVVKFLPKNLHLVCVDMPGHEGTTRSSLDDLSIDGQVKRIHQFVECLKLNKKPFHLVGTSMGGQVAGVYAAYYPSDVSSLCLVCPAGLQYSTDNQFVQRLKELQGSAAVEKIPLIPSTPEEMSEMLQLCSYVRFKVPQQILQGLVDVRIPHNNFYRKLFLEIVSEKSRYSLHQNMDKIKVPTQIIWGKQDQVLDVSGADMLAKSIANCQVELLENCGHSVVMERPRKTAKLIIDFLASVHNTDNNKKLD
Description: Inhibition of human ABHD6 overexpressed in HEK293 cells assessed as 2-AG hydrolysis at 1 uM by fluorescent glycerol assay. The format is cell-based.
Conditions: not given
On to `COc1nn(Cc2ccccc2Oc2ccccc2)c(=O)o1`, for which the inhibition entry is “inactive”.

As to `COc1nn(C(C)c2cccc(-c3ccccc3)c2)c(=O)o1` (stereo not given), the inhibition result was “inactive”.

On to `COc1nn(Cc2ccc(N(c3ccccc3)c3ccccc3)cc2)c(=O)o1`, for which the inhibition entry is “inactive”.

Turning to `COc1nn([C@@H](C)c2ccc(N(c3ccccc3)c3ccccc3)cc2)c(=O)o1`, the inhibition result is “inactive”.

As for `COc1nn(Cc2cccc(-c3ccccc3)c2)c(=O)o1`, the inhibition entry was “inactive”.

`COc1nn(C(c2ccccc2)c2ccccc2)c(=O)o1`: the inhibition entry is “inactive”.

Consider `COc1nn(C2CCCCC2)c(=O)o1`, for which the inhibition entry is “inactive”.

As for `COc1nn(Cc2ccccc2)c(=O)o1`, the inhibition entry was “inactive”.

With `COc1nn(Cc2ccc(Oc3ccccc3)cc2)c(=O)o1`, the inhibition result was “inactive”.

Turning to `COc1nn(C(C)C)c(=O)o1`, the inhibition entry is “inactive”.

The next test deals with T1, Fatty-acid amide hydrolase 1 (Homo sapiens). Nature of the test: Noncompetitive inhibition of human recombinant FAAH overexpressed in African green monkey COS7 cells using anandamide as substrate assessed as decrease in Vmax of substrate hydrolysis preincubated for 10 mins before substrate addition measured after 10 mins by HPLC analysis. The note with it: COS-7.
`COc1nn([C@@H](C)c2ccc(N(c3ccccc3)c3ccccc3)cc2)c(=O)o1`: the inhibition result is “Dose-dependent effect”.

For a further test the target is unchanged. Nature of the test: Reversible inhibition of human recombinant FAAH overexpressed in African green monkey COS7 cells using […] as substrate assessed as recovery of enzyme activity at 20 x IC50 preincubated for 60 mins followed by 500 fold dilution measured after 10 mins by HPLC analysis. Type of test: cell-based. As to conditions: COS-7.
As for `COc1nn([C@@H](C)c2ccc(N(c3ccccc3)c3ccccc3)cc2)c(=O)o1`, the inhibition entry was “Active”.

The next test has the same target. Nature of the test: Inhibition of human recombinant FAAH overexpressed in African green monkey COS7 cells using [3H]-anandamide as substrate at 10 to 300 uM preincubated for 10 to 60 mins by liquid scintillation counting analysis. Type of test: cell-based. The note with it: COS-7.
As for `COc1nn([C@@H](C)c2ccc(N(c3ccccc3)c3ccccc3)cc2)c(=O)o1`, the inhibition result was “Active”.

A further test shares this target. Description: Inhibition of human recombinant FAAH overexpressed in African green monkey COS7 cells using [3H]-anandamide as substrate at 10 to 100 uM preincubated for 10 to 60 mins by liquid scintillation counting analysis. The note with it: COS-7. The format is cell-based.
`COc1nn([C@@H](C)c2ccc(N(c3ccccc3)c3ccccc3)cc2)c(=O)o1`: the inhibition entry was “Active”.

For the next test the target is unchanged. Description: Inhibition of human recombinant FAAH overexpressed in African green monkey COS7 cells using [3H]-anandamide as substrate at 3 to 30 uM preincubated for 10 to 60 mins by liquid scintillation counting analysis. The note with it: COS-7. Type of test: cell-based.
On to `COc1nn([C@@H](C)c2ccc(N(c3ccccc3)c3ccccc3)cc2)c(=O)o1`, for which the inhibition result is “Active”.

For the next test, the target named is T5, Monoglyceride lipase (Homo sapiens) (UniProt Q99685).
T5 sequence (whole entry): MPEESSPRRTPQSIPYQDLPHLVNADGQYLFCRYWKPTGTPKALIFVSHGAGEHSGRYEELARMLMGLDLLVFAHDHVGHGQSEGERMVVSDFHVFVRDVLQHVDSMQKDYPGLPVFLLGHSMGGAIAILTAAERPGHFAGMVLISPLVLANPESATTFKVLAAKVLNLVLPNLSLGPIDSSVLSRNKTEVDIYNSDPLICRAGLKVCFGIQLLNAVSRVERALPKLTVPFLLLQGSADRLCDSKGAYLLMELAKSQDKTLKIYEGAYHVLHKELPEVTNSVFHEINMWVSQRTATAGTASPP
Description: Inhibition of human recombinant MAGL overexpressed in HEK cells using 2-AG as substrate at 10 uM preincubated for 10 mins before substrate addition measured after 10 mins by HPLC analysis relative to control. The note with it: HEK293. Type of test: cell-based.
Take `COc1nn(Cc2ccccc2Oc2ccccc2)c(=O)o1`: the inhibition result was “inactive”.

On to `COc1nn(C(C)c2cccc(-c3ccccc3)c2)c(=O)o1` (stereo not given), for which the inhibition stood at 42%.

On to `COc1nn([C@@H](C)c2ccc(N(c3ccccc3)c3ccccc3)cc2)c(=O)o1`, for which the inhibition is 41%.

As for `COc1nn(Cc2cccc(-c3ccccc3)c2)c(=O)o1`, the inhibition came to 32%.

Consider `COc1nn(C(c2ccccc2)c2ccccc2)c(=O)o1`, for which the inhibition entry was “inactive”.

Regarding `COc1nn(C2CCCCC2)c(=O)o1`, the inhibition entry was “inactive”.

In the case of `COc1nn(Cc2ccccc2)c(=O)o1`, the inhibition result was “inactive”.

Turning to `COc1nn(C(C)C)c(=O)o1`, the inhibition amounted to 6%.

Another test concerns the target T6, Monoglyceride lipase (Homo sapiens, UniProt Q99685).
T6 sequence (Q99685 whole entry): T5 sequence (whole entry)
Description: Inhibition of human recombinant MAGL overexpressed in HEK cells using 2-AG as substrate preincubated for 10 mins before substrate addition measured after 10 mins by HPLC analysis. Type of test: cell-based, HEK293. As to conditions: read-out: IC50.
Turning to `COc1nn(Cc2ccc(N(c3ccccc3)c3ccccc3)cc2)c(=O)o1`, the IC50 was 260 nM.

For `COc1nn(Cc2ccc(Oc3ccccc3)cc2)c(=O)o1`, the IC50 was found to be 400 nM.

These data come from ChEMBL document CHEMBL3085700 (J Med Chem, 2013).
